In patent US12509434B2, “Optically resolved Trolox intermediate and method for producing same” (PTC THERAPEUTICS, INC., priority 2020, dated 2025):

What was measured:
[1] = Solubility of the crystals in ethyl acetate solvent (reslurry, content of supernatant solution); type: physicochemical
Method: Solubility of RS-Trolox⋅R-PEA, R-Trolox⋅R-PEA, and S-Trolox⋅R-PEA to Ethyl Acetate Solvent
Each crystal was reslurried by adding ethyl acetate. The solubility was calculated from analyzing the content of supernatant solution of each reaction solution at each temperature.

[2] = Solubility of the crystals in amide-based solvents NMP and DMA (reslurry, content of supernatant solution); type: physicochemical; conditions: 20 °C
Method: Solubility of R-Trolox⋅R-PEA, S-Trolox⋅R-PEA, and S-Trolox to NMP and DMA
Each crystal was reslurried by adding an amide-based solvent (NMP, DMA). The solubility was calculated from analyzing the content of supernatant solution of each reaction solution at each temperature.

Compound | Solubility to ethyl acetate solvent ([1]; 0 °C) | Solubility to ethyl acetate solvent ([1]; 15 °C) | Solubility to ethyl acetate solvent ([1]; 30 °C) | Solubility to ethyl acetate solvent ([1]; 45 °C) | Solubility to ethyl acetate solvent ([1]; 60 °C) | Solubility to ethyl acetate solvent ([1]; 75 °C) | Solubility [%] DMA [2] | Solubility [%] NMP [2]
C[C@@H](N)c1ccccc1.Cc1c(C)c2c(c(C)c1O)CCC(C)(C(=O)O)O2 (racemic) [rac-Trolox] | 0.02% | 0.02% | 0.07% | 0.38% | 1.08% | 2.82% | – | –
Cc1c(C)c2c(c(C)c1O)CC[C@](C)(C(=O)O)O2 [R-Trolox] | 0.07% | 0.09% | 0.10% | 0.40% | 0.78% | 0.83% | 0.4% | 0.5%
Cc1c(C)c2c(c(C)c1O)CC[C@@](C)(C(=O)O)O2 [S-Trolox (Free), (S)-6-hydroxy-2,5,7,8-tetramethylchroman-2-carboxylic acid] | – | – | – | – | – | – | ≥10% | ≥10%
C[C@@H](N)c1ccccc1.Cc1c(C)c2c(c(C)c1O)CC[C@@](C)(C(=O)O)O2 [S-Trolox] | 2.6% | 9.9% | 14.2% | – | – | – | ≥10% | ≥10%
